In paper PMC12648288, “Drastic Impact of Donor Substituents on Xanthenes in the PDT of Glioblastoma” (JACS Au, 2025):
Like-named read-outs stand apart in the source and are kept apart here.

Assays:
[1] = Absorption and emission spectra, fluorescence quantum yield; format: physicochemical; settings: for ε (M^–1 cm^–1) / λabs (nm) / λems (nm): In PBS (pH 7.4, 1% DMSO); for φF (%) fluorescence quantum yield: Reference: methylene blue in MeOH (φF = 23%)
Experimental: First, the absorption and emission spectra of both PSs, NSeMorph and NSeAze, were recorded in PBS buffer (pH 7.4, 1% DMSO).
Photophysical Characterization
Fluorescence Quantum Yield
Fluorescence quantum yields of the samples were investigated using a fluorescence spectrometer (FLS 1000, Edinburgh Instruments) equipped with an integrating sphere accessory. A continuous-wave xenon lamp served as the excitation source, and the emitted fluorescence was detected with a standard photomultiplier (PMT-900) covering a wavelength range of 200-800 nm. During measurements, the PMT was cooled to - 20 °C using a built-in housing to reduce undesired dark current noise.
For quantum yield measurement, an integrating sphere (Edinburgh Instruments) was placed inside the spectrometer's sample compartment. The internal cavity of the sphere was coated with a PTFE-like material, enabling a reflectance of approximately […]
respectively. The sphere had two ports positioned 90° apart. The excitation beam was directed to the sample through the excitation port, and the fluorescence was collected from the emission port. The excitation port of the sphere included a lens to effectively focus the beam on the sample, while the emission port was an open aperture.
Prior to the experiments with the PSs, blank spectra were measured using the reference solvents (PBS, pH 7.4, 1% DMSO). For both measurements (blank and sample), two identical quartz cuvettes with equal volumes were used. Initially, the reference sample was placed inside the sphere, and the emission/excitation slits were adjusted to the excitation wavelength to ensure the PMT's response remained linear during measurements. To cover a scattering range, the emission scans started 20 nm below the actual excitation wavelengths and ended at 900 nm. Additionally, the step size and integration time of the measurements were set to 1 nm and 0.2 seconds, […]
Upon completing all emission measurements of the samples and references, the quantum yields of the samples were determined using the Fluoracle software. The built-in analysis tool calculates the quantum yield (QY) as: […]
where Es (EB) and Ss (SB) are the selected areas for the emitted and scattered signals

[2] = n-octanol/PBS distribution (LogP); format: physicochemical; settings: Distribution coefficient in n-octanol/PBS solution
[3] = test system: U118MG glioblastoma cells; experiment: MTT cell viability, dark and PDT; format: cell-based, human
Experimental: (§1) The time- and concentration-dependent effects of NSeAze and NSeMorph on glioblastoma cells were determined by using the MTT assay (Figure S7). In this regard, U118MG and U87MG cells were administered with NSeMorph (0.5–20 μM) and NSeAze (0.01–2.5 μM) for 24 h to evaluate their dark toxicity. Before PDT application, both cell lines were treated as indicated for 1 h and then exposed to 660 nm LED light for 2 and 1 h, respectively (Figure ). Following overnight incubation, the resulting cell viability was calculated and compared to the effect of both compounds in the absence of irradiation. […]
(§2) Cell Culture and Treatment
(§3) Human glioblastoma cell lines (U118MG and U87MG) and healthy mouse fibroblast cells (L929) were cultured in DMEM high glucose medium supplemented with 10% fetal bovine serum (FBS), 2 mM glutamine, 1% penicillin/stremptomycin, 0.5% amphotericin B, and incubated at 37 °C with 5% CO2. NSeMorph and NSeAze were dissolved in cell culture-grade DMSO and further diluted in complete medium for experimental use. For phototoxicity analysis, cells were administered with NSeMorph […]
(§4) mW/cm2) irradiation for 2 h in NSeMorph-treated groups and 1 h in NSeAze-treated groups. Then, each group were incubated for further 24 h in the dark to allow for resting. On the other hand, the dark toxicity of both agents was detected following the same treatment under identical conditions without LED irradiation. To determine the involvement of distinct ROS types, cells were pretreated for 1 h with selective […]
(§5) scavengers prior to photosensitizer exposure. The scavengers included NAC (5 mM), NaN3 (5 mM), histidine (5 mM), Tiron (100 µM), mannitol (25 mM) and Trolox (25 µM).
(§6) Cell viability was then assessed following irradiation. For index calculations, all cells were treated with the increasing concentrations (0.5-500 µM) of NSeMorph and NSeAze for 24 h. Final DMSO concentrations were kept below 0.5% (v/v) in all […]
(§7) PI=IC50, dark /IC50, light
(§8) SI= IC50, light, healthy cells/IC50, light, cancer cells
(§9) TI= IC50, dark, healthy cells/IC50, light, cancer cells
(§10) The viability of cells treated with NSeMorph and NSeAze was determined with MTT (3-[4,5-dimethylthiazol-2-yl]-2,5-diphenyltetrazoliumbromide) assay. Following the administration of both compounds, the medium was discarded and cells were treated with fresh media containing MTT (0.5 mg/ml) for 2-4 h at 37 °C. Formazan crystals were then solubilized in 10% SDS in 0.01 N HCl, and absorbance was measured at 490 and 570 nm wavelength using microplate reader (Multiskan Sky, Thermo Scientific). Data were normalized to vehicle (DMSO)-treated controls. IC50 values were calculated using nonlinear regression analysis in GraphPad Prism 9.02 (GraphPad Software Inc.). All experiments were performed in technical and biological replicates

U87MG glioblastoma cells = experiment: MTT cell viability, dark and PDT; format: cell-based, human
Experimental: as §1, §2, §3, §4, §5, §6, §7, §8, §9, §10

[4] = test system: L929 healthy fibroblast cells; experiment: MTT cell viability, dark and PDT; format: cell-based; settings: Mus musculus
Experimental: as §1, §2, §3, §4, §5, §6, §7, §8, §9, §10

[5] = Homo sapiens, U-118-MG, 1 h incubation, 660 nm LED 2 h (NSeMorph) or 1 h (NSeAze), read-out: IC50 (light)
[6] = Homo sapiens, U-118-MG, 24 h, dark, 24 h, read-out: IC50 (dark)
[7] = Homo sapiens, U-87 MG, 1 h incubation, 660 nm LED 2 h (NSeMorph) or 1 h (NSeAze), read-out: IC50 (light)
[8] = Homo sapiens, U-87 MG, 24 h, dark, 24 h, read-out: IC50 (dark)
[9] = L929, 1 h incubation, 660 nm LED 2 h (NSeMorph) or 1 h (NSeAze), read-out: IC50 (light)
[10] = L929, dark, 24 h, read-out: IC50 (dark)
[11] = 1 h incubation, 660 nm LED 2 h (NSeMorph) or 1 h (NSeAze), read-out: IC50 (light)

SMILES	ε (M^–1 cm^–1) [1]	λabs (nm) [1] [nm]	λems (nm) [1] [nm]	φF (%) fluorescence quantum yield [1] [%]	logP [2]	IC50 ([3]; Homo sapiens, U-118-MG, 1 h, 660 nm LED 1 h, read-out: IC50 (light)) [µM]	IC50 [3, 5] [µM]	IC50 [3, 6] [µM]	IC50 (U87MG glioblastoma cells; Homo sapiens, U-87 MG, 1 h, 660 nm LED 1 h, read-out: IC50 (light)) [µM]	IC50 (U87MG glioblastoma cells; [7]) [µM]	IC50 (U87MG glioblastoma cells; [8]) [µM]	IC50 (U87MG glioblastoma cells; dark, 24 h, read-out: IC50 (dark)) [µM]	IC50 [4, 9] [µM]	IC50 [4, 10] [µM]	IC50 [3, 11] [µM]	IC50 (U87MG glioblastoma cells; [11]) [µM]
c1cc2nc3ccc(=[N+]4CCC4)cc-3[se]c2cc1N1CCC1 [NSeAze]	15,300 M^–1 cm^–1	671	695	8.2	0.81	0.461	0.46 ± 0.02	60.4 ± 2.6	0.456	0.38	65.8 ± 2.51	65.9 ± 2.5	< 1	129 ± 5.1	–	–
c1cc2nc3ccc(=[N+]4CCOCC4)cc-3[se]c2cc1N1CCOCC1 [NSeMorph]	16,600 M^–1 cm^–1	671	717	1.1	-0.42	–	8	375 ± 17.4	–	15.8	> 500	–	> 20	> 500	8.02 ± 0.34	15.8 ± 0.84
